Publication PMC8376931, “Structure activity relationships and the binding mode of quinolinone-pyrimidine hybrids as reversal agents of multidrug resistance mediated by P-gp” (Scientific Reports, 2021)
Like-named read-outs stand apart in the source and are kept apart here.

Experiments:
[1] = test system: PBMC; experiment: Cytotoxicity on peripheral blood mononuclear cells (MTT); format: cell-based; settings: Homo sapiens, 48 h, PHA 10 μg/mL, read-out: inhibition on proliferation of PBMC
Experimental: (§1) PBMC were isolated from heparinized blood of healthy volunteers by density centrifugation using Ficoll-Hypaque separation. Ethical approval was provided by the Catholic University of Córdoba Research Ethics Board and informed consents were obtained from all donors. Briefly, 1 × 10^5 PBMC/well were incubated with the tested compounds at concentrations ranging from 2.5 to 20 µM in the presence of 10 μg/mL PHA, or with 1% DMSO as control. After 48 h incubation, MTT was added and the same protocol described above was followed to calculate the IC50 values. An erythrocyte hemolysis assay was carried out following previous procedures[8] with the compounds assayed at 2.5 to 20 µM.

[2] = test system: Lucena 1 cells; experiment: Doxorubicin resistance reversal assay; format: cell-based; settings: for lowest co-administered concentration significantly increasing doxorubicin toxicity: p < 0.05
Experimental: (§2) The cells were incubated at 37 °C at 5% CO2 for 48 h and the same protocol described above was followed. IC50 values of Dox were then obtained.

[3] = test system: Lucena 1 cells; experiment: MTT cytotoxicity assay in Lucena 1; format: cell-based; settings: 48 h
Experimental: (§3) Then 0.5 mg/mL MTT in PBS was added. After additional incubation for 4 h, the formazan crystals obtained were dissolved in DMSO and the absorbance at 595 nm was read on an iMark micro-plate reader (Bio-Rad, USA). IC50 values for cytotoxicity were then calculated as reported[50] using nonlinear regression by GraphPad Prism 7 (Graphpad Software, Inc., San Diego, CA, USA, www.graphpad.com).
as §2

[4] = test system: K562 cells; experiment: Rhodamine 123 intracellular accumulation assay in K562; format: cell-based; settings: 20 μM
Experimental: (§4) The intracellular accumulation of the fluorescent probes, Dox and Rho123, was determined by monitoring its fluorescence intensity using flow cytometry (96-well plate format), as previously reported. The inhibition on the outward transport of these P-gp substrates results in an increased […] fluorescence intensity (MFI). […] Those compounds showing inhibition on P-gp at the maximum tested concentration were further evaluated at serial dilutions to determinate their MECs. […] The plates were then incubated in a 5% CO2 incubator for 1 h at 37 °C. Afterwards, 5 μM Dox was added to each well. The other fluorescent specific substrate of P-gp, Rho123, however, was added at 500 ng/mL to additionally measure the ability of the most promising compounds to block its efflux. Subsequently, cells from both assays were washed twice with cold PBS, and 15,000 events from each sample were analyzed to determine the cell-associated fluorescence. Dead cells were eliminated by means of forward- and side-scatter parameters. […] The blocking of the P-gp transport function was evaluated by the parameter FIR, calculated as the ratio of the MFI of Dox or Rho123 with the addition of the likely inhibitor to the MFI of Dox or Rho123 alone.

[5] = target: T1, P-gp (Homo sapiens, UniProt P08183); settings: 1 h
Experimental: as §4

[6] = test system: K562 cells; experiment: MTT cytotoxicity assay in K562; format: cell-based; settings: 48 h
Experimental: as §3, §2

[7] = target: T1, P-gp; settings: human, 1 h; for FIR Rho123: 0.62 µM; for FIR Rho123 (fold more Rho123 than untreated cells): 20 µM
Experimental: The intracellular accumulation of the fluorescent probes, Dox and Rho123, was determined by monitoring its fluorescence intensity using flow cytometry (96-well plate format), as previously reported. The inhibition on the outward transport of these P-gp substrates results in an increased […] fluorescence intensity (MFI). […] The plates were then incubated in a 5% CO2 incubator for 1 h at 37 °C. Afterwards, 5 μM Dox was added to each well. The other fluorescent specific substrate of P-gp, Rho123, however, was added at 500 ng/mL to additionally measure the ability of the most promising compounds to block its efflux. Subsequently, cells from both assays were washed twice with cold PBS, and 15,000 events from each sample were analyzed to determine the cell-associated fluorescence. Dead cells were eliminated by means of forward- and side-scatter parameters. […] The blocking of the P-gp transport function was evaluated by the parameter FIR, calculated as the ratio of the MFI of Dox or Rho123 with the addition of the likely inhibitor to the MFI of Dox or Rho123 alone.

[8] = test system: K562 cells; experiment: Doxorubicin intracellular accumulation assay (flow cytometry) in K562; format: cell-based; parameters: key: MFI with inhibitor / MFI of Dox alone; settings: compound 20 µM; 5 μM Dox
Experimental: as §4

[9] = test system: erythrocytes; experiment: Erythrocyte hemolysis assay; format: cell-based; settings: assayed at 2.5 to 20 µM
Experimental: as §1

[10] = test system: SphK1; settings: previously found; read-out: IC50 against SphK1; cited from earlier work
[11] = test system: SphK2; settings: previously found; read-out: IC50 against SphK2; cited from earlier work
[12] = compound 1.25 µM, FR = IC50 Dox/IC50 Dox with compound, 48 h

T1 sequence (P08183 whole entry): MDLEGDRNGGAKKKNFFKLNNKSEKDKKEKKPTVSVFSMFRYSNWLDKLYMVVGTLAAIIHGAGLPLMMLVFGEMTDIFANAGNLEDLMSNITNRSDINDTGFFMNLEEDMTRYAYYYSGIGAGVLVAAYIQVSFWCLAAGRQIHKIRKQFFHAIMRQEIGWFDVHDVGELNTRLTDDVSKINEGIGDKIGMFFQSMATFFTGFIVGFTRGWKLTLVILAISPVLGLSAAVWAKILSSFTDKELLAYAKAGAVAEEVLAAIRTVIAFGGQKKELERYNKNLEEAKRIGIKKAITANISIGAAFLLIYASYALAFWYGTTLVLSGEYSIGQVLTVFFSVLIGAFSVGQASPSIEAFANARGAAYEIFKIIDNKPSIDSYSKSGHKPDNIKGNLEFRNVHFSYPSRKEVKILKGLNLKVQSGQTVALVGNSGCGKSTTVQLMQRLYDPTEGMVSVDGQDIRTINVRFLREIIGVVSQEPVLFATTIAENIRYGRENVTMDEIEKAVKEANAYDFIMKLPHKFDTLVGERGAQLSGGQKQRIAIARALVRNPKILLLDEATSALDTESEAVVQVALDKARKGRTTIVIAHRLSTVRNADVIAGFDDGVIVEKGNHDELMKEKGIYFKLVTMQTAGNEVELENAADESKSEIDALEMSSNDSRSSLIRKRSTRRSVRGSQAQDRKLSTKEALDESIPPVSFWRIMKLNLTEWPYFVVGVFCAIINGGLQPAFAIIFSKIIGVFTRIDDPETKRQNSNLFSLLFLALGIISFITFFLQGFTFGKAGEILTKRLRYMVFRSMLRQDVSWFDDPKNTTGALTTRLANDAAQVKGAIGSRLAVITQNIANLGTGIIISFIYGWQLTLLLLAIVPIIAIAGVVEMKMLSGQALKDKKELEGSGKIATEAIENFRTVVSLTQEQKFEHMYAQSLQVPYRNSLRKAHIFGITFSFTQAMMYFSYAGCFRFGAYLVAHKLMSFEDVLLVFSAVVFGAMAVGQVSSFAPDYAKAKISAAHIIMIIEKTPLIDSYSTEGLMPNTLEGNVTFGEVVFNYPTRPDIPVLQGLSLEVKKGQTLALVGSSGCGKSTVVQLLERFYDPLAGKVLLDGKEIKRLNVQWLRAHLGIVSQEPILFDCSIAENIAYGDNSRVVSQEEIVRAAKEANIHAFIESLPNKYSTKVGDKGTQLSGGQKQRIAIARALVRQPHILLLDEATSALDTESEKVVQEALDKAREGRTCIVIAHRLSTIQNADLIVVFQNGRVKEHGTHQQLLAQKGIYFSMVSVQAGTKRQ

minimum effective concentration (MEC), Dox accumulation [5] [µM]	FIR Lucena 1 ([5]; 0.16 µM)	FIR Lucena 1 ([5]; 0.31 µM)	FIR Lucena 1 ([5]; 0.62 µM)	FIR Lucena 1 ([5]; 1.25 µM)	FIR Lucena 1 ([5]; 2.5 µM)	FIR Lucena 1 ([5]; 5 µM)	FIR Lucena 1 ([5]; 10 µM)	FIR Lucena 1 ([5]; 20 µM)	minimum effective concentration (MEC), Rho123 accumulation [7] [µM]	FIR Rho123 [7]	FIR Rho123 (fold more Rho123 than untreated cells) [7]	Structure (SMILES)	inhibition at 20 µM [1] [%]	fold reversal (FR) of Dox resistance [2, 12]	lowest co-administered concentration significantly increasing doxorubicin toxicity [2] [µM]	IC50 (cytotoxicity) against Lucena 1 [3]	Rho123 accumulation in K562 (result in words) [4]	IC50 (cytotoxicity) against K562 [6]	FIR K562 [8]	concentrations at which the erythrocyte membrane was not altered [9]	other results
0.31	0.99 ± 0.07	1.12 ± 0.02	1.29 ± 0.08	1.22 ± 0.03	1.26 ± 0.01	1.23 ± 0.05	1.24 ± 0.10	1.42 ± 0.09	0.62	1.36 ± 0.04	2.72 ± 0.10	COc1cc2cc(CNc3ccc(Nc4nccc(-c5ccc6ccccc6c5)n4)cc3)c(=O)[nH]c2cc1OC [Compound 5c]	21	5.16 ± 0.60	0.04	non-toxic	no increase	non-toxic	0.95 ± 0.02	lower than 10 µM	fold reversal (FR) of Dox resistance ([2]; compound 40 nM): 1.30 ± 0.05
0.31	1.04 ± 0.02	1.10 ± 0.01	1.21 ± 0.01	1.18 ± 0.03	1.26 ± 0.04	1.26 ± 0.04	1.25 ± 0.04	1.43 ± 0.10	0.62	1.37 ± 0.06	3.05 ± 0.16	COc1ccc2[nH]c(=O)c(CN3CCN(c4nccc(-c5ccc6ccccc6c5)n4)CC3)cc2c1 [Compound 7b]	12	6.90 ± 2.84	0.08	non-toxic	no increase	non-toxic	0.88 ± 0.02	< 20 µM	fold reversal (FR) of Dox resistance ([2]; compound 80 nM): 1.51 ± 0.23; IC50 [10]: > 650 µM; IC50 [11]: > 650 µM
